Reference: patent US10626144B2, “Peptide derivatives and uses thereof” (Nosopharm, priority 2014, dated 2020)
Square brackets hold non-standard residues; d marks the D form. Peptide text beside a SMILES is read from it. * marks the point of attachment. Phe(3-CONH2) = NC(=O)c1cccc(C[C@H](N)C(=O)O)c1; Phe(3,4-F2) = N[C@@H](Cc1ccc(F)c(F)c1)C(=O)O; Phe(3-CN) = N#Cc1cccc(C[C@H](N)C(=O)O)c1; Phe(3-OMe) = COc1cccc(C[C@H](N)C(=O)O)c1; Phe(3-Me) = Cc1cccc(C[C@H](N)C(=O)O)c1; Dab(3S-OH) = NC[C@H](O)[C@H](N)C(=O)O; 3Pal = N[C@@H](Cc1cccnc1)C(=O)O; ΔZArg = N=C(N)NCC/C=C(\N)C(=O)O; AllylGly = C=CC[C@H](N)C(=O)O; hLys = NCCCCC[C@H](N)C(=O)O; dOrn = NCCC[C@@H](N)C(=O)O; NMeA = CN[C@@H](C)C(=O)O; Orn = NCCC[C@H](N)C(=O)O; Dab = NCC[C@H](N)C(=O)O; NH(CH2)4NH2 = NCCCCN*

Tests used:
Assay in all cases: MIC, broth microdilution (CLSI), reference strain
Details in all cases: CAMHB
[1] = test system: Staphylococcus aureus ATCC 13709
[2] = test system: Acinetobacter baumannii ATCC 19606
[3] = test system: Pseudomonas aeruginosa ATCC 27853
[4] = test system: Escherichia coli ATCC 25922

| Structure (SMILES) | Sa: MIC Staphylococcus aureus ATCC 13709 [1] | Ab: MIC Acinetobacter baumannii ATCC 19606 [2] | Pa: MIC Pseudomonas aeruginosa ATCC 27853 [3] | Ec: MIC Escherichia coli ATCC 25922 [4] |
| --- | --- | --- | --- | --- |
| C[C@H](NC(=O)[C@@H](NC(=O)[C@@H](N)CCCCN)[C@@H](O)CN)C(=O)NCC(=O)N[C@H](CCCN)C(=O)N1CCC[C@H]1C(=O)N[C@@H](Cc1cccc(C#N)c1)C(=O)N[C@@H](CCCCN)C(=O)N/C(=C\CCNC(=N)N)C(=O)O [24.89] (H-K[Dab(3S-OH)]AG[dOrn]P[Phe(3-CN)]K[ΔZArg]-OH) | ++ (≤8 μg/mL) | − (>32 μg/mL) | − (>32 μg/mL) | + (≤32 μg/mL) |
| N=C(N)NCC/C=C(\NC(=O)[C@H](CCCCN)NC(=O)[C@H](Cc1c[nH]c2ccccc12)NC(=O)[C@@H]1CCCN1C(=O)[C@@H](CCCN)NC(=O)CNC(=O)[C@H](CCCN)NC(=O)[C@@H](NC(=O)[C@@H](N)CCCCN)[C@@H](O)CN)C(=O)O [211.11] (H-K[Dab(3S-OH)][Orn]G[dOrn]PWK[ΔZArg]-OH) | ++ (≤8 μg/mL) | − (>32 μg/mL) | − (>32 μg/mL) | ++ (≤8 μg/mL) |
| C[C@H](NC(=O)[C@@H](NC(=O)[C@@H](N)CCCCN)[C@@H](O)CN)C(=O)NCC(=O)N[C@H](CCCN)C(=O)N1CCC[C@H]1C(=O)N[C@@H](Cc1cnc[nH]1)C(=O)N[C@@H](CCCCCN)C(=O)N[C@H](CCCNC(=N)N)C(N)=O [24.121] (H-K[Dab(3S-OH)]AG[dOrn]PH[hLys][dR]-NH2) | ++ (≤8 μg/mL) | − (>32 μg/mL) | − (>32 μg/mL) | − (>32 μg/mL) |
| N=C(N)NCC/C=C(\NC(=O)[C@H](CCCCN)NC(=O)[C@H](Cc1cccc(C(N)=O)c1)NC(=O)[C@@H]1CCCN1C(=O)[C@@H](CCCN)NC(=O)CNC(=O)[C@H](CCN)NC(=O)[C@@H](NC(=O)[C@@H](N)CCCCN)[C@@H](O)CN)C(=O)O [21.6] (H-K[Dab(3S-OH)][Dab]G[dOrn]P[Phe(3-CONH2)]K[ΔZArg]-OH) | ++ (≤8 μg/mL) | − (>32 μg/mL) | − (>32 μg/mL) | ++ (≤8 μg/mL) |
| C[C@H](NC(=O)[C@@H](NC(=O)[C@@H](N)CCCCN)[C@@H](O)CN)C(=O)NCC(=O)N[C@H](CCCN)C(=O)N1CCC[C@H]1C(=O)N[C@@H](Cc1ccc(F)c(F)c1)C(=O)N[C@@H](CCCCN)C(=O)N/C(=C\CCNC(=N)N)C(=O)O [24.84] (H-K[Dab(3S-OH)]AG[dOrn]P[Phe(3,4-F2)]K[ΔZArg]-OH) | ++ (≤8 μg/mL) | − (>32 μg/mL) | − (>32 μg/mL) | ++ (≤8 μg/mL) |
| C=CC[C@H](NC(=O)[C@@H]1CCCN1C(=O)[C@@H](CCCN)NC(=O)CNC(=O)[C@H](C)NC(=O)[C@@H](NC(=O)[C@@H](N)CCCCN)[C@@H](O)CN)C(=O)N[C@@H](CCCCN)C(=O)N/C(=C\CCNC(=N)N)C(=O)O [24.111] (H-K[Dab(3S-OH)]AG[dOrn]P[AllylGly]K[ΔZArg]-OH) | ++ (≤8 μg/mL) | − (>32 μg/mL) | − (>32 μg/mL) | + (≤32 μg/mL) |
| C[C@H](NC(=O)[C@@H](NC(=O)[C@@H](N)CCCCN)[C@@H](O)CN)C(=O)NCC(=O)N[C@H](CCCN)C(=O)N1CCC[C@H]1C(=O)N[C@@H](Cc1cnc[nH]1)C(=O)N[C@@H](CCCCN)C(=O)N[C@H](CCCNC(=N)N)C(N)=O [24.68] (H-K[Dab(3S-OH)]AG[dOrn]PHK[dR]-NH2) | ++ (≤8 μg/mL) | − (>32 μg/mL) | − (>32 μg/mL) | + (≤32 μg/mL) |
| C[C@H](NC(=O)[C@@H](NC(=O)[C@@H](N)CCCCN)[C@@H](O)CN)C(=O)NCC(=O)N[C@H](CCCN)C(=O)N1CCC[C@H]1C(=O)N[C@@H](Cc1cccnc1)C(=O)N[C@@H](CCCCN)C(=O)N/C(=C\CCNC(=N)N)C(=O)N[C@@H](CCCCN)C(=O)NCCCCN [24.18] (H-K[Dab(3S-OH)]AG[dOrn]P[3Pal]K[ΔZArg]K-{NH(CH2)4NH2}) | ++ (≤8 μg/mL) | − (>32 μg/mL) | − (>32 μg/mL) | ++ (≤8 μg/mL) |
| C[C@H](NC(=O)[C@H](CCN)NC(=O)[C@@H](N)CCCN)C(=O)NCC(=O)N[C@H](CCCN)C(=O)N1CCC[C@H]1C(=O)N[C@@H](Cc1cnc[nH]1)C(=O)N[C@@H](CCCCN)C(=O)N/C(=C\CCNC(=N)N)C(=O)N[C@@H](CCCCN)C(=O)NCCCCN [14.16] (H-[Orn][Dab]AG[dOrn]PHK[ΔZArg]K-{NH(CH2)4NH2}) | ++ (≤8 μg/mL) | − (>32 μg/mL) | − (>32 μg/mL) | − (>32 μg/mL) |
| COc1cccc(C[C@H](NC(=O)[C@@H]2CCCN2C(=O)[C@@H](CCCN)NC(=O)CNC(=O)[C@H](C)NC(=O)[C@@H](NC(=O)[C@@H](N)CCCCN)[C@@H](O)CN)C(=O)N[C@@H](CCCCN)C(=O)N/C(=C\CCNC(=N)N)C(=O)O)c1 [24.92] (H-K[Dab(3S-OH)]AG[dOrn]P[Phe(3-OMe)]K[ΔZArg]-OH) | ++ (≤8 μg/mL) | − (>32 μg/mL) | − (>32 μg/mL) | + (≤32 μg/mL) |
| Cc1cccc(C[C@H](NC(=O)[C@@H]2CCCN2C(=O)[C@@H](CCCN)NC(=O)CNC(=O)[C@H](CCN)NC(=O)[C@@H](NC(=O)[C@@H](N)CCCCN)[C@@H](O)CN)C(=O)N[C@@H](CCCCN)C(=O)N/C(=C\CCNC(=N)N)C(=O)O)c1 [21.8] (H-K[Dab(3S-OH)][Dab]G[dOrn]P[Phe(3-Me)]K[ΔZArg]-OH) | ++ (≤8 μg/mL) | − (>32 μg/mL) | − (>32 μg/mL) | ++ (≤8 μg/mL) |
| C[C@H](NC(=O)[C@@H](NC(=O)[C@@H](N)CCCCN)[C@@H](O)CN)C(=O)NCC(=O)N[C@H](CCCN)C(=O)N(C)[C@@H](C)C(=O)N[C@@H](Cc1cnc[nH]1)C(=O)N[C@@H](CCCCN)C(=O)N/C(=C\CCNC(=N)N)C(N)=O [24.65] (H-K[Dab(3S-OH)]AG[dOrn][NMeA]HK[ΔZArg]-NH2) | ++ (≤8 μg/mL) | − (>32 μg/mL) | − (>32 μg/mL) | + (≤32 μg/mL) |
| COC(=O)CC[C@H](NC(=O)[C@@H]1CCCN1C(=O)[C@@H](CCCN)NC(=O)CNC(=O)[C@H](C)NC(=O)[C@@H](NC(=O)[C@@H](N)CCCCN)[C@@H](O)CN)C(=O)N[C@@H](CCCCN)C(=O)N/C(=C\CCNC(=N)N)C(=O)O [24.120] (H-K[Dab(3S-OH)]AG[dOrn]PE(OMe)K[ΔZArg]-OH) | − (>32 μg/mL) | − (>32 μg/mL) | − (>32 μg/mL) | + (≤32 μg/mL) |
| CC(=O)NCC[C@H](NC(=O)[C@@H](NC(=O)[C@@H](N)CCCCN)[C@@H](O)CN)C(=O)NCC(=O)N[C@H](CCCN)C(=O)N1CCC[C@H]1C(=O)N[C@@H](Cc1cnc[nH]1)C(=O)N[C@@H](CCCCN)C(=O)N/C(=C\CCNC(=N)N)C(N)=O [21.3] (H-K[Dab(3S-OH)][Dab](Ac)G[dOrn]PHK[ΔZArg]-NH2) | ++ (≤8 μg/mL) | − (>32 μg/mL) | − (>32 μg/mL) | − (>32 μg/mL) |
| C[C@H](NC(=O)/C(=C/CCNC(=N)N)NC(=O)[C@H](CCCCN)NC(=O)[C@H](Cc1cnc[nH]1)NC(=O)[C@@H]1CCCN1C(=O)[C@@H](CCCN)NC(=O)CNC(=O)[C@@H](NC(=O)[C@@H](NC(=O)[C@@H](N)CCCCN)[C@@H](O)CN)[C@@H](O)CN)C(=O)NCCCCN [22.10] (H-K[Dab(3S-OH)][Dab(3S-OH)]G[dOrn]PHK[ΔZArg]A-{NH(CH2)4NH2}) | ++ (≤8 μg/mL) | − (>32 μg/mL) | + (≤32 μg/mL) | ++ (≤8 μg/mL) |
| C[C@H](NC(=O)[C@@H](NC(=O)[C@@H](N)CCCCN)[C@@H](O)CN)C(=O)NCC(=O)N[C@H](CCCN)C(=O)N1CCC[C@H]1C(=O)N[C@@H](Cc1cnc[nH]1)C(=O)N[C@@H](CCCCN)C(=O)N/C(=C\CCNC(=N)N)C(N)=O [24.5] (H-K[Dab(3S-OH)]AG[dOrn]PHK[ΔZArg]-NH2) | – | − (>32 μg/mL) | − (>32 μg/mL) | – |
| C[C@H](NC(=O)[C@@H](NC(=O)[C@@H](N)CCCCN)[C@@H](O)CN)C(=O)NCC(=O)N[C@H](CCCN)C(=O)N1CCC[C@H]1C(=O)N[C@@H](Cc1cnc[nH]1)C(=O)N[C@@H](CCCCN)C(=O)N/C(=C\CCNC(=N)N)C(N)=O [24.125] (H-K[Dab(3S-OH)]AG[dOrn]PHK[ΔZArg]-NH2) | ++ (≤8 μg/mL) | – | – | ++ (≤8 μg/mL) |
